This note sets out measurements from patent US20110300129A1, “SYSTEMS AND METHODS FOR ENHANCING VACCINE EFFICACY” (UNIVERSITY OF ROCHESTER, priority 2008, published 2011).

In data set [1] the test system is PPARγ expression in human B cells. Nature of the data set: PPARγ expression in activated B cells, Western blot densitometry. The conditions noted are these: 48 hr; 2 μg/ml anti-IgM Ab, 1 μg/ml CpG; three donors; 'up to'. The class given is cell-based. The text has this:
B Cell Isolation: Normal B lymphocytes were isolated from a unit of whole blood from healthy donors with ethical permission from the Research Subjects Review Board at the University of Rochester. The isolation of normal B lymphocytes has been previously described (Ryan, et al., “Activated Human B Lymphocytes Express Cyclooxygenase-2 and Cyclooxygenase Inhibitors Attenuate Antibody Production,” J Immunol 174:2619-2626 (2005), which is hereby incorporated by reference in its entirety). Briefly, buffy coats were obtained from whole blood and peripheral blood mononuclear cells (PBMCs) were obtained using Ficoll-Paque (Amersham Biosciences AB) gradient centrifugation. […] B lymphocyte purity was >98% CD19 positive (as determined by flow cytometry, data not shown). […]
Western Blots: Whole cell extracts were collected using ELB buffer (50 mM HEPES (pH 7), 250 mM NaCl, 0.1% Nonidet P-40, 5 mM EDTA, 10 mM NaF, 0.1 mM Na3VO4, 50 μM ZnCl2, supplemented with 0.1 mM PMSF, 1 mM DTT, and a mixture of protease and phosphatase inhibitors) and total protein was quantified using bicinchoninic acid protein assay (BCA assay kit) (Pierce, Rockford, Ill.). […] The membranes were analyzed for immunoreactivity with the indicated primary antibody, washed and then incubated with an appropriate horseradish peroxidase-conjugated secondary antibody. […]

Data set [2] has the same test system. Nature of the data set: Intracellular PPARγ staining of B cells, flow cytometry. Format: cell-based. The note with it: activated B cells. The procedure: For intracellular staining for PPARγ, untreated or activated B lymphocytes were surface stained with 20 μl of APC anti-human CD19 mAb (BD Biosciences) for 30 minutes in the dark at room temperature (RT). Cells were then fix and permeabilized with BD Cytofix/Cytoperm Fixation/Permeabilization Kit following the manufacturer's instructions. A FITC-Conjugated anti-human PPARγ antibody was used at a 1/100 dilution. An equal amount of IgG1 FITC mAb was used as an isotype control.
On the technique in general: Flow cytometry measures light scatter and fluorescence of single cells or particles in a stream.

Data set [3] deals with purified human B lymphocytes. Description: Antibody production, IgM and IgG ELISA of B cell supernatants. The class given is cell-based. The note with it: CpG 1 μg/ml alone, 5 days. The procedure: Antibody Production: Purified human B lymphocytes (5×10^5 cells/ml) were cultured in 96-well round-bottom microtiter plates. […] Pilot experiments were performed to optimize the doses of PPARγ and RXR ligands. […] Supernatants were harvested and the concentrations of IgM and IgG were analyzed using human-specific ELISAs (Bethyl Laboratories).
(An ELISA detects its analyte on a solid surface through an enzyme-linked reagent.)

The target in data set [4] is T1, PPARγ (Homo sapiens, UniProt P37231).
T1 construct: normal B cells were transfected with a PPARγ luciferase reporter construct; endogenous in cells
T1 sequence (P37231 1-505): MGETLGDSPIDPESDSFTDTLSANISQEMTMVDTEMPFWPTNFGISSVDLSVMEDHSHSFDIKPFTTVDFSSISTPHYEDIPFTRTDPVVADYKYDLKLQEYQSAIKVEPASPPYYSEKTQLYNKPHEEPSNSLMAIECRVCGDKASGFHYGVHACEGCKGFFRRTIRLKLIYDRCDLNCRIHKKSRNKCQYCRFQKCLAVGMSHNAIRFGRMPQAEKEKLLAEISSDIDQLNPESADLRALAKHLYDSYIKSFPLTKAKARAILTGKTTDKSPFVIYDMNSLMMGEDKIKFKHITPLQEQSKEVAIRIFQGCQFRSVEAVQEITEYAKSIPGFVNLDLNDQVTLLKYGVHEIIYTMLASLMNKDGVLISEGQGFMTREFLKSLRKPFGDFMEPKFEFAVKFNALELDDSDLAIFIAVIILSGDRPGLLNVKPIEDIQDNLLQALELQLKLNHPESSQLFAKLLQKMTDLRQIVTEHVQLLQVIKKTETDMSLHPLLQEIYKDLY
Nature of the data set: PPARγ gene reporter analysis (PPRE-luciferase) in transfected B cells. The conditions noted are these: CpG-activated B cells with no exogenous PPARγ ligand. The class given is cell-based. As to the method:
Twenty-four hours after treatments, luciferase activity was assayed using the Promega Luciferase Assay System (Madison, Wis.). Relative light units (RLU) were determined with a Lumicount Microplate Luminometer (Packard Instrument Co., Meriden, Conn., USA). Relative light units (RLU) were normalized to transfection efficiency that was monitored by cotransfection of GFP expression vector.
To test whether the PPARγ ligand concentrations used here activated PPARγ, normal B cells were transfected with a PPARγ luciferase reporter construct.

Data set [5] deals with peripheral blood B cells. Description: Plasma cell differentiation, CD38/CD27 surface labeling by flow cytometry. Format: cell-based, human. The conditions noted are these: CpG 1 μg/ml, 5 days, 9-cis-RA 100 nM. The procedure: Intracellular and Surface Labeling: B cells were incubated with mouse anti-human CD19-APC (BD Biosciences), anti-human CD38-PE (BD Biosciences) and/or anti-human CD27-APC (BD Biosciences) in cold PBS with sodium azide (0.02%) and BSA (0.3%) for 20 min at 20° C. COX-2 intracellular staining was performed as described previously (Padilla et al., “Human B Lymphocytes and B Lymphomas Express PPAR-γ and Are Killed by PPAR-γ Agonists,” Clin Immunol 103:22-33 (2002), which is hereby incorporated by reference in its entirety). All samples were acquired on a BD Biosciences FACS Calibur flow cytometer and analyzed using FlowJo software (Tree Star, Inc. Ashland, Oreg.).
Peripheral-blood B lymphocytes include both naive and memory B cell populations. These two B cell subsets can be distinguished based on CD27 expression, which is a marker of memory B cells (Agematsu et al., “CD27: A Memory B-cell Marker,” Immunol Today 21:204-206 (2000), each of which is hereby incorporated by reference in its entirety).

Data set [6] concerns Cox-2 expression in B cells. Description: Cox-2 intracellular staining of CD19+ B cells, flow cytometry. The class given is cell-based, human. The procedure: Intracellular and Surface Labeling: B cells were incubated with mouse anti-human CD19-APC (BD Biosciences), anti-human CD38-PE (BD Biosciences) and/or anti-human CD27-APC (BD Biosciences) in cold PBS with sodium azide (0.02%) and BSA (0.3%) for 20 min at 20° C. […] All samples were acquired on a BD Biosciences FACS Calibur flow cytometer and analyzed using FlowJo software (Tree Star, Inc. Ashland, Oreg.).
Therefore, the levels of Cox-2 expression were evaluated following PPARγ ligand treatment.

For data set [7], the system named is BLIMP-1 expression in B cells. Nature of the data set: BLIMP-1 expression in B cells, Western blot densitometry. The note with it: CpG treatment. The class given is cell-based, human. As to the method: Western Blots: Whole cell extracts were collected using ELB buffer (50 mM HEPES (pH 7), 250 mM NaCl, 0.1% Nonidet P-40, 5 mM EDTA, 10 mM NaF, 0.1 mM Na3VO4, 50 μM ZnCl2, supplemented with 0.1 mM PMSF, 1 mM DTT, and a mixture of protease and phosphatase inhibitors) and total protein was quantified using bicinchoninic acid protein assay (BCA assay kit) (Pierce, Rockford, Ill.). Twenty-five micrograms of protein was electrophoresed on 8-16% Precise™ protein gels (Pierce, Rockford, Ill.) and transferred to polyvinylidene fluoride (PVDF) membrane (Millipore, Billerica, Mass.). The membranes were analyzed for immunoreactivity with the indicated primary antibody, washed and then incubated with an appropriate horseradish peroxidase-conjugated secondary antibody. The membranes were visualized by chemiluminescence using an ECL kit (Pierce, Rockford, Ill.).
Lastly, BLIMP-1 expression was evaluated. BLIMP-1 is a transcription factor important in B cell differentiation (Shaffer et al., “Blimp-1 Orchestrates Plasma Cell Differentiation by Extinguishing the Mature B Cell Gene Expression Program,” Immunity 17:51-62 (2002), which is hereby incorporated by reference in its entirety). […] When B cells were treated with a combination of CpG and PPARγ ligands, there was a further increase in BLIMP-1 expression.
(In general: In western blotting, separated proteins are transferred to a membrane and probed.)

For the substance “CpG: CpG oligodeoxynucleotides 2395 5′-TCGTCGTTTTCGGCGCGCGCCG-3′ (SEQ ID NO: 1), a TLR-9 ligand, mitogen (chemistry not given here)”, the “PPARγ protein levels increase compared to untreated B cells (densitometry of Western blot)” value in data set [1] is recorded as at most 14.3 fold. Further, the “intracellular PPARγ levels compared to untreated B cells” value in data set [2] is “increased”. Besides, in data set [3], the IgG production entry is “significantly induced” and the IgM production result is on record as “significantly induced”. In data set [4], the “PPARγ activity (PPRE reporter)” value is listed as “did not induce PPARγ activity”. Besides, the “percentage of CD38-expressing naive B cells (CD38highCD27low)” value in data set [5] stood at 9.1±0.6%. Also, the “percentage of CD38highCD27high B cells (plasma cells)” value in data set [5] (Rosiglitazone 0.5 μM, 15d-PGJ2 0.2 μM) was found to be 7.0±1.7%. The “percentage of B cells which express Cox-2” value in data set [6] (CpG 1 μg/ml, Rosiglitazone 0.5 μM, 15d-PGJ2 0.2 μM, 3% untreated) was 27%. In data set [6] (FIG. 6B), the “levels of Cox-2 expression (mean fluorescence intensity)” value is recorded as “increased the levels of Cox-2 expression”. Also, the “BLIMP-1 protein levels compared to untreated or freshly isolated B cells” value in data set [7] was “significantly upregulated”.
